pIC50: −log10 of the molar value.
What was measured:
NCI-H1975 = assay: cells; format: functional, cell-based; conditions: Homo sapiens, NCI-H1975, 48 h
A549 = assay: Antiproliferative activity against human A549 cells harboring wild type EGFR after 48 hrs by SRB assay; format: cell-based; conditions: A549, 48 h
HT-29 = assay: Antiproliferative activity against non-special gene type human HT-29 cells after 48 hrs by SRB assay; format: cell-based; conditions: HT-29, 48 h
[1] = molecular target: Epidermal growth factor receptor (Homo sapiens, UniProt P00533, T790M)
Epidermal growth factor receptor (Homo sapiens, UniProt P00533, T790M), sequence (P00533 25-1210 T790M limits assumed): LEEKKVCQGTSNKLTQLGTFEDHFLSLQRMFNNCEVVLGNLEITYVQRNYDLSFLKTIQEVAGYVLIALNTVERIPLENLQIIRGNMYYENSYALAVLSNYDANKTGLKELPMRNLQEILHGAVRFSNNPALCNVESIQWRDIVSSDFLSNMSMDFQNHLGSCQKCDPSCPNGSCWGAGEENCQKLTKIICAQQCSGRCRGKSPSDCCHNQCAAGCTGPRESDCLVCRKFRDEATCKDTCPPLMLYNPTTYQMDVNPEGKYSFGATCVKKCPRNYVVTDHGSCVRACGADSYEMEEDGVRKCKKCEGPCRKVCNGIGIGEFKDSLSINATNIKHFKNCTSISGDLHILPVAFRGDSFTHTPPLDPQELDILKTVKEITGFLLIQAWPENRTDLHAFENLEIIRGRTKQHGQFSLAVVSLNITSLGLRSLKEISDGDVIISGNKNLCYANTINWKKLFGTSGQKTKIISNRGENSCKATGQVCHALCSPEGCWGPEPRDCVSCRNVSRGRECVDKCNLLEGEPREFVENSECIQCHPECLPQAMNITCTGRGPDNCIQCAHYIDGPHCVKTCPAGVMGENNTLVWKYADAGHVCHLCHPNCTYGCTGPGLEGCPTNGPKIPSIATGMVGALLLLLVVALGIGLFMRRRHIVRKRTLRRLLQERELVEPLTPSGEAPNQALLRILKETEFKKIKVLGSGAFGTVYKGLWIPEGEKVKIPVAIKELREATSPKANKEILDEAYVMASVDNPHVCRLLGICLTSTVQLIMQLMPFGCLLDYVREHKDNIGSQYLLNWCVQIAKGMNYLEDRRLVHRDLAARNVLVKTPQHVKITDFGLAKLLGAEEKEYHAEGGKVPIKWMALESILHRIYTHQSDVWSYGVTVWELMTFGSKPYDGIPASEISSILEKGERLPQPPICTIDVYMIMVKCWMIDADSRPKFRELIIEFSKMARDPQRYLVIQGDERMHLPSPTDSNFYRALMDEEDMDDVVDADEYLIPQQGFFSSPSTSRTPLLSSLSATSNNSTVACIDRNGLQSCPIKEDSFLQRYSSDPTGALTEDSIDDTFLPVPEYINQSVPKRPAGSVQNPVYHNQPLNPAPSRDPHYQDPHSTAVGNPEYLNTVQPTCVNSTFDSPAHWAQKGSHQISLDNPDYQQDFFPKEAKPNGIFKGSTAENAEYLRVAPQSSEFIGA

[2] = molecular target: Epidermal growth factor receptor (Homo sapiens, UniProt P00533); assay: Inhibition of human EGFR preincubated for 5 mins with substrate followed by ATP addition measured after 30 mins by HTRF method; format: ADME
Epidermal growth factor receptor (Homo sapiens, UniProt P00533), sequence (P00533 whole entry): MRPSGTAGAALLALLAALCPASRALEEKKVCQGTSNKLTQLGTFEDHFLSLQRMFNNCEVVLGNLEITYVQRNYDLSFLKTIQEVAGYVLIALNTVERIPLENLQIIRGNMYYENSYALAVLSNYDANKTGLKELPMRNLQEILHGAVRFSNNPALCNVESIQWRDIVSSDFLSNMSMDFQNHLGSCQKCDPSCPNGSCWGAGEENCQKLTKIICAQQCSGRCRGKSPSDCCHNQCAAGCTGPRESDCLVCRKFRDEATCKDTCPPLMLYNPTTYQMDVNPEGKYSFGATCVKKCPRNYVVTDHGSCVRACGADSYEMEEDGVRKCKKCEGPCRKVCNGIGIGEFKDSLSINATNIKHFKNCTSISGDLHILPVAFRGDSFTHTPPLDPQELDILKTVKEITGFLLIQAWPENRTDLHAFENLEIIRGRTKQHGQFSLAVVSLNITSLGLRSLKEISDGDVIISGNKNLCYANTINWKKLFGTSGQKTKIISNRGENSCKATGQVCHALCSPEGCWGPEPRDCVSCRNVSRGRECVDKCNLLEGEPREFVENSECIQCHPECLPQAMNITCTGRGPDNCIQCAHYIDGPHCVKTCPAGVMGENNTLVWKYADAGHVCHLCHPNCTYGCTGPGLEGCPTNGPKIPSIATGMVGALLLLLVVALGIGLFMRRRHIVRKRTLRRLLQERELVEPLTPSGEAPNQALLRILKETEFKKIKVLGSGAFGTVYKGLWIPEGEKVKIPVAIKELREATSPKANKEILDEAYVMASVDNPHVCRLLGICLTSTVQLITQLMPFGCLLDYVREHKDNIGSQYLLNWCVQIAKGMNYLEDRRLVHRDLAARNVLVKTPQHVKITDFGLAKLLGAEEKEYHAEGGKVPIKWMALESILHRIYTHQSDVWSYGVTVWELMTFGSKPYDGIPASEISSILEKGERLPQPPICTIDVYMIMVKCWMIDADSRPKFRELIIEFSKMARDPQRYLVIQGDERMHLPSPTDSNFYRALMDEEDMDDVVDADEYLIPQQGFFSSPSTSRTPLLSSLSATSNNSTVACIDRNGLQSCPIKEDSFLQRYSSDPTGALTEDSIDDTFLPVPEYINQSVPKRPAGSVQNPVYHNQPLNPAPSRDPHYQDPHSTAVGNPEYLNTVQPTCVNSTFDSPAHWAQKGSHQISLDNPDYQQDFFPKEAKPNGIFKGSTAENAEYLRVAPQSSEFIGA

[3] = molecular target: Tyrosine-protein kinase Blk (Homo sapiens) (UniProt P51451); assay: Inhibition of human N-terminal His6 tagged recombinant full-length human Blk expressed in Sf21 insect cells at 3 uM relative to control
[4] = molecular target: Cyclin-dependent kinase 1/cyclin B1 (Homo sapiens) (UniProt P06493+P14635); assay: Inhibition of C-terminal His6-tagged human full length Cdk1/N-terminal GST-tagged human full length Cyclin B expressed in baculovirus infected Sf21 insect cells at 3 uM relative to control
Cyclin-dependent kinase 1/cyclin B1 (Homo sapiens), sequence (P06493 whole entry, looked up, the tested form may be a part): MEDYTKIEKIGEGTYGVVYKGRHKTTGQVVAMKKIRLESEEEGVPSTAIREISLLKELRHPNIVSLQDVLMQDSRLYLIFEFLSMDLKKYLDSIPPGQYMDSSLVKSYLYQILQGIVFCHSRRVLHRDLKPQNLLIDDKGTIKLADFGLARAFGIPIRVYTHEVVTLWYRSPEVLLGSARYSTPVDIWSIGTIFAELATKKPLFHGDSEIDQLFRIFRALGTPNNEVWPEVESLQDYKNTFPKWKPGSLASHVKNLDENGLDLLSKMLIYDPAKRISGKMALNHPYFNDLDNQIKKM
Cyclin-dependent kinase 1/cyclin B1 (Homo sapiens), sequence (P14635 whole entry, looked up, the tested form may be a part): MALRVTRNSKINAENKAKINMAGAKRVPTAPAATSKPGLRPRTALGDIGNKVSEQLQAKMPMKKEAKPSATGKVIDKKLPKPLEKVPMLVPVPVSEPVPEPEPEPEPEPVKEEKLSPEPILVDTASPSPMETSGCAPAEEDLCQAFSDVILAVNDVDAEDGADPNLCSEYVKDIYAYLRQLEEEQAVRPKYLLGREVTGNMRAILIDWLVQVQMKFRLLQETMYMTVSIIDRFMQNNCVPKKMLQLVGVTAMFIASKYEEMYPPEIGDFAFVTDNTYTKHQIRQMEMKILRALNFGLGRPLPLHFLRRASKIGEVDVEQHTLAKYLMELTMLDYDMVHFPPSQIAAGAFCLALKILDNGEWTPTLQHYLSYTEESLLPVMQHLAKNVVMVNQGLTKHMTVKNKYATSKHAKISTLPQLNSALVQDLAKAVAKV

[5] = molecular target: EGFR (epidermal growth factor receptor) kinase domain (Homo sapiens, UniProt P00533); assay: Inhibition of N-terminal GST-tagged human EGFR kinase domain (696 to end residues) expressed in baculovirus infected Sf21 insect cells at 3 uM relative to control
[6] = molecular target: Vascular endothelial growth factor receptor 1 (Homo sapiens) (UniProt P17948); assay: Inhibition of recombinant human VEGFR-1 expressed in Spodoptera frugiperda insect cells at 3 uM relative to control
[7] = molecular target: Vascular endothelial growth factor receptor 2 (Homo sapiens) (UniProt P35968); assay: Inhibition of recombinant human VEGFR-2 at 3 uM relative to control
[8] = molecular target: Tyrosine-protein kinase ABL1 (Homo sapiens) (UniProt P00519); assay: Inhibition of N-terminal His6-tagged recombinant human Abl (27 to end residues) expressed in baculovirus infected Sf21 insect cells at 3 uM relative to control
[9] = molecular target: 5'-AMP-activated protein kinase catalytic subunit alpha-1 (Homo sapiens) (UniProt Q13131); assay: Inhibition of full length recombinant human C-terminal His-tagged AMPKalpha1 expressed in Spodoptera frugiperda insect cells at 3 uM relative to control
[10] = molecular target: Aurora kinase A (Homo sapiens) (UniProt O14965); assay: Inhibition of N-terminal His6-tagged recombinant full-length human Aurora A expressed in Sf21 insect cells at 3 uM relative to control
[11] = molecular target: Mast/stem cell growth factor receptor Kit (Homo sapiens) (UniProt P10721); assay: Inhibition of N-terminal GST tagged recombinant human c-Kit (544 to end residues) expressed in baculovirus infected Sf21 insect cells at 3 uM relative to control
Mast/stem cell growth factor receptor Kit (Homo sapiens), sequence (P10721 whole entry, the tested form may be a part): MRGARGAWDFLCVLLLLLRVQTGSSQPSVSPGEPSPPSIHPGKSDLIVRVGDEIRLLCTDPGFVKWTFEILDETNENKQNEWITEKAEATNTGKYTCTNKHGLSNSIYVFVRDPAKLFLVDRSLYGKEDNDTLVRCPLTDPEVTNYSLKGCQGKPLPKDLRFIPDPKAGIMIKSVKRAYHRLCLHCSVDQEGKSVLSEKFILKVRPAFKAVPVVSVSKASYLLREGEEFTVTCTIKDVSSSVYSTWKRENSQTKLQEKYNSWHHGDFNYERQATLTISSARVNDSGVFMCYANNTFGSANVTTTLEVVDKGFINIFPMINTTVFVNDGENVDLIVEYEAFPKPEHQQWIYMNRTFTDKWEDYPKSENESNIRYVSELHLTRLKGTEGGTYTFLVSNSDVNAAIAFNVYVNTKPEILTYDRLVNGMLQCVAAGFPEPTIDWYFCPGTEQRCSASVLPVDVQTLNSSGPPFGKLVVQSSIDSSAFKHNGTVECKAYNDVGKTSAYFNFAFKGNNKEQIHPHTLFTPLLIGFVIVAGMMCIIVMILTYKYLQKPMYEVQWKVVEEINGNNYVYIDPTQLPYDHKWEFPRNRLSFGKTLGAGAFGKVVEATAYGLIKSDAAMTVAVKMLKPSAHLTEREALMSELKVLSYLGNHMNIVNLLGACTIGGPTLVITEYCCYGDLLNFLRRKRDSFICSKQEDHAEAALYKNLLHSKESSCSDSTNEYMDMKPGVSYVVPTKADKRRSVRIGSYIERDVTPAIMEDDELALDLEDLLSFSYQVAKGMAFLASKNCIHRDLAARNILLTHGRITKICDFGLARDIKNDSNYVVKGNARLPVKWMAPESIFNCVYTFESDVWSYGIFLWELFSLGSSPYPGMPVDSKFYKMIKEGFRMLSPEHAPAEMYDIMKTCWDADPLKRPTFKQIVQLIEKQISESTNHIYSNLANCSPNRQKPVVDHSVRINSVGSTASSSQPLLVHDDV

[12] = molecular target: Focal adhesion kinase 1 (Homo sapiens) (UniProt Q05397); assay: Inhibition of N-terminal 6His-tagged recombinant human FAK (411 to 686 residues) expressed in baculovirus infected Sf21 insect cells at 3 uM relative to control
[13] = molecular target: Fibroblast growth factor receptor 1 (Homo sapiens) (UniProt P11362); assay: Inhibition of N-terminal GST-tagged recombinant human FGFR1 (456 to 765 residues) expressed in baculovirus infected Sf21 insect cells at 3 uM relative to control
Fibroblast growth factor receptor 1 (Homo sapiens), sequence (P11362 22-822 limits assumed): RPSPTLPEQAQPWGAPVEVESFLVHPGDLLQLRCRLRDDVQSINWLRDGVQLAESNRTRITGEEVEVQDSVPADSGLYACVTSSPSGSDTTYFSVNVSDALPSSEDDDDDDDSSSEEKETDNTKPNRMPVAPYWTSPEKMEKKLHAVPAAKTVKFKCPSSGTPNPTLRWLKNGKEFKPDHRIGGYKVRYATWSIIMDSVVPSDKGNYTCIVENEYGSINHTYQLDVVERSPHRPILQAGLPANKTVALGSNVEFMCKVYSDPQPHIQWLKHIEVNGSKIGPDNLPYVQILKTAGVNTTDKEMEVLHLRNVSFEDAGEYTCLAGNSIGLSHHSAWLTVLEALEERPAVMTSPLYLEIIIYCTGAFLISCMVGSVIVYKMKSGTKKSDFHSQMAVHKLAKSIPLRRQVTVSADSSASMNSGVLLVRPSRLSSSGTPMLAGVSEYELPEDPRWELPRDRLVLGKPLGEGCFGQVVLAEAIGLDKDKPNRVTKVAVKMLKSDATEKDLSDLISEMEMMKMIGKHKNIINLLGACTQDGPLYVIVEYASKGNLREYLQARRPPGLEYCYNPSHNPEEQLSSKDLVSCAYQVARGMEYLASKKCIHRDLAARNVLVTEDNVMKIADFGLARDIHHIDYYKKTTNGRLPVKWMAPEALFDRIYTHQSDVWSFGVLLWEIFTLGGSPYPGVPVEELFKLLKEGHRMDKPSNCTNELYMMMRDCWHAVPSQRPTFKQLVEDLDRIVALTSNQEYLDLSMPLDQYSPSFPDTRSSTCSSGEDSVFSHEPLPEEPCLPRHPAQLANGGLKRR

[14] = molecular target: Receptor-type tyrosine-protein kinase FLT3 (Homo sapiens) (UniProt P36888); assay: Inhibition of N-terminal GST tagged recombinant human Flt3 (564 to end residues) at 3 uM relative to control
[15] = molecular target: Insulin-like growth factor 1 receptor (Homo sapiens) (UniProt P08069); assay: Inhibition of N-terminal 6His-tagged recombinant human IGF-1R (959 to end residues) expressed in baculovirus infected Sf21 insect cells at 3 uM relative to control
[16] = molecular target: Insulin receptor (Homo sapiens) (UniProt P06213); assay: Inhibition of N-terminal 6His-tagged recombinant human insulin receptor (1005 to 1310 residues) expressed in baculovirus infected Sf21 insect cells at 3 uM relative to control
[17] = molecular target: Tyrosine-protein kinase JAK2 (Homo sapiens) (UniProt O60674); assay: Inhibition of C-terminal His6-tagged recombinant human JAK2 (808 to end residue) expressed in baculovirus infected Sf21 insect cells at 3 uM relative to control
[18] = molecular target: LKB1-STRAD-MO25 complex (Homo sapiens) (UniProt Q15831+Q7RTN6+Q9Y376); assay: Inhibition of recombinant full-length N-terminal 6-His-tagged human LKB1/GST-tagged MO25alpha/GST-tagged STRADalpha expressed in SF21 cells at 3 uM relative to control
[19] = molecular target: Dual specificity mitogen-activated protein kinase kinase 1 (Homo sapiens) (UniProt Q02750); assay: Inhibition of recombinant human N-terminal GST-fused MEK1 expressed in Escherichia coli at 3 uM relative to control
[20] = molecular target: Hepatocyte growth factor receptor (Homo sapiens) (UniProt P08581); assay: Inhibition of N-terminal His6-tagged recombinant human Met (974 to end residues) expressed in baculovirus infected Sf21 insect cells at 3 uM relative to control
[21] = molecular target: Tyrosine-protein kinase SYK (Homo sapiens) (UniProt P43405); assay: Inhibition of recombinant full length N-terminal His6-tagged human SYK expressed in baculovirus infected Sf21 insect cells at 3 uM relative to control

| SMILES | pIC50 (NCI-H1975) | pIC50 (A549) | pIC50 (HT-29) | pIC50 [1] | pIC50 [2] | other results |
| --- | --- | --- | --- | --- | --- | --- |
| O=c1c2ccc(Cl)cc2nc(-c2ccccc2)n1-c1nnc(-c2ccccc2)s1 | 6.67 | 5.68 | 5.57 | 5.95 | 5.77 | – |
| C=CC(=O)Nc1cccc(Oc2nc(Nc3ccc(N4CCN(C)CC4)cc3OC)ncc2Cl)c1 | – | 5.73 | – | – | – | – |
| NCCn1c(-c2ccccc2)nc2cc(Cl)ccc2c1=O | 6.42 | 5.61 | 6.37 | 6.54 | 5.68 | – |
| O=C(Nc1cc(Cl)ccc1C(=O)NCc1ccccc1)c1ccccc1 | 5.78 | 5.80 | 5.32 | – | – | – |
| O=c1c2ccccc2nc(-c2ccccc2)n1-c1nnc(-c2ccccc2Cl)s1 | 5.28 | 4.00 | 4.49 | 5.14 | 4.11 | – |
| O=c1c2ccc(Cl)cc2nc(-c2ccccc2)n1-c1cccnc1 | 5.61 | 5.48 | 5.42 | – | – | – |
| COc1ccc(-n2c(-c3ccccc3)nc3cc(Cl)ccc3c2=O)cc1 | 5.54 | 5.54 | 5.41 | – | – | – |
| COc1ccc(-c2nnc(-n3c(-c4ccccc4)nc4cc(Cl)ccc4c3=O)s2)cc1 | 7.51 | 6.41 | 6.41 | 7.68 | 6.49 | inhibition [3]: 0%; inhibition [4]: 0%; inhibition at 3 µM [5]: 78%; inhibition [6]: 0 to 34%; inhibition [7]: 42%; inhibition [8]: 0%; inhibition [9]: 0%; inhibition [10]: 0%; inhibition [11]: 0%; inhibition [12]: 0%; inhibition [13]: 0%; inhibition [14]: 0%; inhibition [15]: 10%; inhibition [16]: 0%; inhibition [17]: 0%; inhibition [18]: 0%; inhibition [19]: 0%; inhibition [20]: 0%; inhibition [21]: 0% |
| O=c1c2ccc(Cl)cc2nc(-c2ccccc2)n1-c1nnc(C2CC2)s1 | 6.89 | 6.14 | 6.14 | 6.99 | 6.28 | – |
| O=C(Nn1c(-c2ccccc2)nc2ccccc2c1=O)c1ccc(Br)cc1 | 6.09 | 6.28 | 5.94 | 6.11 | 6.38 | – |
| Cc1nnc(-n2c(-c3ccccc3)nc3cc(Cl)ccc3c2=O)s1 | 6.12 | 5.42 | 4.67 | – | – | – |
| CC(=O)c1ccccc1-n1c(-c2ccccc2)nc2cc(Cl)ccc2c1=O | 6.07 | 4.30 | 4.30 | 6.14 | 4.46 | – |
| O=C(Nc1cc(Cl)ccc1C(=O)Nc1ccc(F)cc1)c1ccccc1 | 4.84 | 4.76 | 5.47 | – | – | – |
| O=c1c2ccc(Cl)cc2nc(-c2ccccc2)n1-c1cccc(Cl)c1 | 5.61 | 5.28 | 5.35 | – | – | – |
| Nc1ccccc1-n1c(-c2ccccc2)nc2cc(Cl)ccc2c1=O | 5.31 | 4.74 | 4.30 | – | – | – |
| O=c1c2ccccc2nc(-c2ccccc2)n1-c1ccc(F)c(Cl)c1 | 5.31 | 5.27 | 5.21 | – | – | – |
| O=c1c2ccccc2nc(-c2ccccc2)n1-c1nnc(C2CC2)s1 | 5.62 | 5.52 | 5.46 | – | – | – |

Source: ChEMBL document CHEMBL4024718, “Design and synthesis of quinazolinones as EGFR inhibitors to overcome EGFR resistance obstacle” (Bioorg Med Chem, 2017)
